Several values for one entry are separate records, joined by “and”; a condition that tells them apart may be missing. Equal values may be shown once. Inconclusive results and toxic doses are left out.
System: L1210 leukemia ip in BDF1 mice, survival T/C
Experiment: NCI In Vivo Anticancer Drug Screen. Data for tumor model L1210 Leukemia (intraperitoneal) in B6D2F1 (BDF1) mice
Settings: higher = longer survival
Outline: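 Tumor was transplanted into mice, which were then dosed with test compound or vehicle alone. Survival was recorded for each group, and the treated figure was expressed relative to the control figure.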

Nc1ncn(C2OC(CO)C(O)C2O)c(=O)n1 (stereo not given)
T/C (endpoint: mean survival time, dose: 0.12 mg/kg/injection, schedule: Q01DX009 (ip), vehicle: saline): 111 % of control
T/C (endpoint: mean survival time, dose: 0.23 mg/kg/injection, schedule: Q01DX009 (ip), vehicle: saline): 101 % of control and 121 % of control
T/C (endpoint: mean survival time, dose: 0.5 mg/kg/injection, schedule: Q01DX009 (ip), vehicle: saline): 156 % of control
T/C (endpoint: mean survival time, dose: 0.75 mg/kg/injection, schedule: Q01DX009 (ip), vehicle: other): 161 % of control
T/C (endpoint: mean survival time, dose: 1.0 mg/kg/injection, schedule: Q01DX005 (oral), vehicle: saline): 114 % of control
T/C (endpoint: mean survival time, dose: 1.0 mg/kg/injection, schedule: Q## X008 (ip), vehicle: saline): 121 % of control
T/C (endpoint: mean survival time, dose: 1.0 mg/kg/injection, schedule: Q## X040 (oral), vehicle: saline): 105 % of control
T/C (endpoint: mean survival time, dose: 1.25 mg/kg/injection, schedule: Q01DX009 (ip), vehicle: saline): 170 % of control
T/C (endpoint: mean survival time, dose: 1.3 mg/kg/injection, schedule: Q03HX008 (ip), vehicle: saline): 171 % of control
T/C (endpoint: mean survival time, dose: 1.5 mg/kg/injection, schedule: Q01DX005 (ip), vehicle: clinical formulation): 150 % of control
T/C (endpoint: mean survival time, dose: 1.5 mg/kg/injection, schedule: Q01DX009 (ip), vehicle: water): 164 % of control and 166 % of control
T/C (endpoint: mean survival time, dose: 2.0 mg/kg/injection, schedule: Q01DX005 (oral), vehicle: saline): 124 % of control
T/C (endpoint: mean survival time, dose: 2.0 mg/kg/injection, schedule: Q01DX015 (ip), vehicle: other): 159 % of control
T/C (endpoint: mean survival time, dose: 2.0 mg/kg/injection, schedule: Q03HX008 (ip), vehicle: saline): 155 % of control
T/C (endpoint: mean survival time, dose: 2.0 mg/kg/injection, schedule: Q## X024 (ip), vehicle: saline): 151 % of control
T/C (endpoint: mean survival time, dose: 2.0 mg/kg/injection, schedule: Q## X040 (oral), vehicle: saline): 108 % of control
T/C (endpoint: mean survival time, dose: 2.3 mg/kg/injection, schedule: Q04DX002 (ip), vehicle: saline): 117 % of control and 123 % of control
T/C (endpoint: mean survival time, dose: 2.5 mg/kg/injection, schedule: Q01DX009 (ip), vehicle: carboxymethylcellulose (CMC)): 155 % of control
T/C (endpoint: mean survival time, dose: 3.0 mg/kg/injection, schedule: Q01DX001 (ip), vehicle: saline): 119 % of control
T/C (endpoint: mean survival time, dose: 3.0 mg/kg/injection, schedule: Q01DX005 (ip), vehicle: water): 150 % of control
T/C (endpoint: mean survival time, dose: 3.0 mg/kg/injection, schedule: Q01DX009 (ip), vehicle: saline with Tween-80): 111 % of control
T/C (endpoint: mean survival time, dose: 3.0 mg/kg/injection, schedule: Q01DX009 (oral), vehicle: saline): 158 % of control
T/C (endpoint: mean survival time, dose: 3.0 mg/kg/injection, schedule: Q03HX008 (ip), vehicle: saline): 170 % of control
T/C (endpoint: mean survival time, dose: 3.12 mg/kg/injection, schedule: Q01DX009 (ip), vehicle: saline): 164 % of control
T/C (endpoint: mean survival time, dose: 3.12 mg/kg/injection, schedule: Q04DX003 (ip), vehicle: water): 157 % of control and 160 % of control
T/C (endpoint: mean survival time, dose: 4.0 mg/kg/injection, schedule: Q## X024 (ip), vehicle: saline): 168 % of control
T/C (endpoint: mean survival time, dose: 6.0 mg/kg/injection, schedule: Q01DX005 (ip), vehicle: water): 112 % of control
T/C (endpoint: mean survival time, dose: 6.0 mg/kg/injection, schedule: Q01DX009 (ip), vehicle: clinical formulation): 103 % of control
T/C (endpoint: mean survival time, dose: 6.0 mg/kg/injection, schedule: Q01DX009 (ip), vehicle: other): 104 % of control
T/C (endpoint: mean survival time, dose: 6.0 mg/kg/injection, schedule: Q01DX009 (ip), vehicle: saline): 98 % of control
T/C (endpoint: mean survival time, dose: 6.0 mg/kg/injection, schedule: Q01DX009 (ip), vehicle: water): 94 % of control
T/C (endpoint: mean survival time, dose: 6.0 mg/kg/injection, schedule: Q01DX009 (oral), vehicle: saline): 172 % of control
T/C (endpoint: mean survival time, dose: 6.0 mg/kg/injection, schedule: Q## X008 (ip), vehicle: saline): 156 % of control
T/C (endpoint: mean survival time, dose: 7.2 mg/kg/injection, schedule: Q01DX009 (ip), vehicle: saline): 111 % of control
T/C (endpoint: mean survival time, dose: 8.0 mg/kg/injection, schedule: Q01DX005 (oral), vehicle: saline): 164 % of control
T/C (endpoint: mean survival time, dose: 8.0 mg/kg/injection, schedule: Q## X040 (oral), vehicle: saline): 163 % of control
T/C (endpoint: mean survival time, dose: 10.0 mg/kg/injection, schedule: Q01DX009 (ip), vehicle: saline): 111 % of control
T/C (endpoint: mean survival time, dose: 12.0 mg/kg/injection, schedule: Q01DX001 (ip), vehicle: saline): 150 % of control
T/C (endpoint: mean survival time, dose: 12.0 mg/kg/injection, schedule: Q01DX005 (ip), vehicle: saline): 168 % of control
T/C (endpoint: mean survival time, dose: 12.0 mg/kg/injection, schedule: Q01DX009 (ip), vehicle: saline): 98 % of control
T/C (endpoint: mean survival time, dose: 12.0 mg/kg/injection, schedule: Q## X008 (ip), vehicle: saline): 161 % of control and 162 % of control
T/C (endpoint: mean survival time, dose: 12.5 mg/kg/injection, schedule: Q01DX001 (ip), vehicle: saline): 164 % of control
T/C (endpoint: mean survival time, dose: 12.5 mg/kg/injection, schedule: Q01DX005 (ip), vehicle: saline): 172 % of control
T/C (endpoint: mean survival time, dose: 22.0 mg/kg/injection, schedule: Q01DX001 (ip), vehicle: other): 153 % of control
T/C (endpoint: mean survival time, dose: 22.0 mg/kg/injection, schedule: Q01DX001 (ip), vehicle: saline): 160 % of control
T/C (endpoint: mean survival time, dose: 24.0 mg/kg/injection, schedule: Q01DX001 (ip), vehicle: saline): 158 % of control
T/C (endpoint: mean survival time, dose: 24.0 mg/kg/injection, schedule: Q01DX009 (ip), vehicle: saline): 93 % of control
T/C (endpoint: mean survival time, dose: 24.0 mg/kg/injection, schedule: Q## X008 (ip), vehicle: saline): 171 % of control
T/C (endpoint: mean survival time, dose: 25.0 mg/kg/injection, schedule: Q01DX001 (ip), vehicle: saline): 166 % of control and 168 % of control
T/C (endpoint: mean survival time, dose: 32.0 mg/kg/injection, schedule: Q01DX001 (oral), vehicle: saline): 112 % of control
T/C (endpoint: mean survival time, dose: 32.0 mg/kg/injection, schedule: Q## X003 (oral), vehicle: saline): 163 % of control
T/C (endpoint: mean survival time, dose: 32.0 mg/kg/injection, schedule: Q## X024 (oral), vehicle: saline): 173 % of control
T/C (endpoint: mean survival time, dose: 33.0 mg/kg/injection, schedule: Q01DX001 (ip), vehicle: saline): 153 % of control
T/C (endpoint: mean survival time, dose: 48.0 mg/kg/injection, schedule: Q01DX009 (ip), vehicle: saline): 102 % of control
T/C (endpoint: mean survival time, dose: 64.0 mg/kg/injection, schedule: Q01DX001 (oral), vehicle: saline): 111 % of control
T/C (endpoint: mean survival time, dose: 64.0 mg/kg/injection, schedule: Q## X003 (oral), vehicle: saline): 163 % of control and 164 % of control
T/C (endpoint: mean survival time, dose: 64.0 mg/kg/injection, schedule: Q## X008 (oral), vehicle: saline): 158 % of control
T/C (endpoint: mean survival time, dose: 69.0 mg/kg/injection, schedule: Q04DX002 (ip), vehicle: saline): 150 % of control
T/C (endpoint: mean survival time, dose: 75.0 mg/kg/injection, schedule: Q01DX001 (ip), vehicle: other): 168 % of control
T/C (endpoint: mean survival time, dose: 96.0 mg/kg/injection, schedule: Q01DX001 (ip), vehicle: saline): 174 % of control
T/C (endpoint: mean survival time, dose: 96.0 mg/kg/injection, schedule: Q## X003 (ip), vehicle: saline): 114 % of control
T/C (endpoint: mean survival time, dose: 100.0 mg/kg/injection, schedule: Q01DX001 (ip), vehicle: other): 162 % of control
T/C (endpoint: mean survival time, dose: 125.0 mg/kg/injection, schedule: Q01DX001 (ip), vehicle: saline): 151 % of control
T/C (endpoint: mean survival time, dose: 150.0 mg/kg/injection, schedule: Q01DX001 (ip), vehicle: saline): 154 % of control
T/C (endpoint: mean survival time, dose: 200.0 mg/kg/injection, schedule: Q01DX001 (ip), vehicle: other): 118 % of control
T/C (endpoint: mean survival time, dose: 256.0 mg/kg/injection, schedule: Q## X003 (oral), vehicle: saline): 171 % of control
T/C (endpoint: mean survival time, dose: 512.0 mg/kg/injection, schedule: Q## X003 (oral), vehicle: saline): 111 % of control
T/C (endpoint: mean survival time, dose: 768.0 mg/kg/injection, schedule: Q01DX001 (oral), vehicle: saline): 157 % of control
T/C (endpoint: median survival time, dose: 0.75 mg/kg/injection, schedule: Q01DX009 (ip), vehicle: saline): 160 % of control
T/C (endpoint: median survival time, dose: 0.78 mg/kg/injection, schedule: Q01DX009 (ip), vehicle: saline): 150 % of control
T/C (endpoint: median survival time, dose: 1.0 mg/kg/injection, schedule: Q01DX005 (ip), vehicle: saline): 120 % of control
T/C (endpoint: median survival time, dose: 1.3 mg/kg/injection, schedule: Q01DX009 (ip), vehicle: saline): 154 % of control and 159 % of control
T/C (endpoint: median survival time, dose: 2.0 mg/kg/injection, schedule: Q01DX005 (ip), vehicle: saline): 169 % of control
T/C (endpoint: median survival time, dose: 3.6 mg/kg/injection, schedule: Q01DX009 (ip), vehicle: saline): 100 % of control and 104 % of control
T/C (endpoint: median survival time, dose: 5.0 mg/kg/injection, schedule: Q01DX001 (ip), vehicle: saline): 121 % of control and 122 % of control
T/C (endpoint: median survival time, dose: 6.0 mg/kg/injection, schedule: Q01DX009 (ip), vehicle: saline): 110 % of control
T/C (endpoint: median survival time, dose: 8.0 mg/kg/injection, schedule: Q01DX005 (ip), vehicle: saline): 154 % of control
T/C (endpoint: median survival time, dose: 8.4 mg/kg/injection, schedule: Q01DX009 (ip), vehicle: saline): 99 % of control and 100 % of control
T/C (endpoint: median survival time, dose: 40.0 mg/kg/injection, schedule: Q01DX001 (ip), vehicle: saline): 153 % of control and 155 % of control
T/C (endpoint: median survival time, dose: 80.0 mg/kg/injection, schedule: Q01DX001 (ip), vehicle: saline): 151 % of control and 155 % of control
